{"source": "paper PMC12062019", "about": "“Therapeutic effects of medicinal and food-based traditional herbal couples on type 2 diabetes mellitus based on pharmacodynamics and pharmacokinetics” (Frontiers in Pharmacology, 2025)", "key": {"[1]": {"system": "Caco-2 cells", "assay": "CCK-8 cell viability, Caco-2", "settings": "Caco-2, 24 h, concentrations up to 65 μg/mL", "protocol": "(§1) HT29 cells were grown in McCoy’s 5A medium containing 10% fetal bovine serum, 1% non-essential amino acids, and 1% penicillin-streptomycin, and other conditions were the same as those for Caco-2 cells culture, with the medium being changed every other day. […] They were incubated at 37°C for 24 h to allow cell adhesion. […] After this, the medium was removed and the cells were co-incubated with 10 μL of CCK-8 solution for 4 h. The absorbance values (OD) were measured at 450 nm using a SpectraMax 190 Enzyme Marker. The blank group consisted of wells that were not inoculated with cells, and the control group included wells containing cells but not exposed to the sample solution. Each group was performed in six replicates. Cell viability was calculated using the following formula: Cell activity%=Experimental Group OD value−Blank Group OD value/Control Group OD value−Blank Group OD value×100%"}, "[2]": {"system": "HT29 cells", "assay": "CCK-8 cell viability, HT29", "settings": "HT29, 24 h, concentrations up to 65 μg/mL", "protocol": "as §1"}, "[3]": {"design": "method as in Wang et al., 2020", "settings": "poor lipid and water solubility; ref Wang et al., 2020; cited from earlier work"}, "[4]": {"system": "T2DM rats", "assay": "Blood glucose and body weight in high-fat diet/STZ-induced T2DM rat model", "format": "in vivo", "settings": "gavage once daily, weight first decreased then increased", "procedure": "The T2DM rat model was developed by intraperitoneal injection of streptozotocin (STZ). 60 male SD rats were acclimatised and reared for 1 week, then blood glucose and body weight were measured, and the rats were randomly divided into 10 in the normal group and 50 in the modelling group according to blood glucose and body weight. The T2DM rat was fed with high-fat chow for 4 weeks, and at the end of the 4 weeks, the rats were fasted for 12 h without food or water, and were injected with a one-time intraperitoneal injection of 35 mg/kg of 1% STZ solution. The normal group was fed with normal chow, and was given free access to drinking water, and was injected intraperitoneally with the same dose of citrate-sodium citrate buffer as that of the T2DM rat. The blood was collected from the tail vein for fasting blood glucose (FBG) measurement after 72 h. FBG of 16.7 mmol/L was considered successful in T2DM model replication. The T2DM rat model was successfully replicated.\nFor better drug delivery, we used a rotary evaporator to concentrate the CR-PLR decoction, CR decoction and PLR decotion to crude drug (1 g/mL), respectively. […]"}, "[5]": {"system": "gut flora of rats", "assay": "16s rDNA sequencing of gut flora of rats", "format": "in vivo, rat", "settings": "T2DM rats"}, "[6]": {"settings": "Genus level, compared to the model group"}}}
{"smiles": "O=c1c(-c2ccc(O)cc2)coc2c([C@@H]3O[C@H](CO)[C@@H](O)[C@H](O)[C@H]3O)c(O)ccc12", "note": "[PUR, Puerarin]", "values": [{"measurement": "relative cell viability", "setting": "[1]", "value": "above 90%"}, {"measurement": "relative cell viability", "setting": "[2]", "value": "above 90%"}, {"measurement": "BCS classification system class", "setting": "[3]", "value": "class IV"}]}
{"smiles": "CN(C)C(=N)N=C(N)N", "note": "[metformin]", "values": [{"measurement": "weeks of administration after which body weight increased", "setting": "[4]", "value": 4, "unit": "weeks"}, {"measurement": "percentage of Lachnospiraceae flora", "setting": "[5]; Family level", "value": 8.91, "unit": "%"}, {"measurement": "percentage of Lactobacillaceae flora", "setting": "[5]; Family level", "value": 8.88, "unit": "%"}, {"measurement": "percentage of Ruminococcaceae flora", "setting": "[5]; Family level", "value": 9.47, "unit": "%"}, {"measurement": "percentage of Ligilactobacillus flora", "setting": "[5]; Genus level", "value": 3.69, "unit": "%"}, {"measurement": "percentage of lactobacilli flora", "setting": "[5]; Genus level", "value": 4.68, "unit": "%"}, {"measurement": "percentage of Akkermansia flora", "setting": "[5]; [6]", "value": "increased"}, {"measurement": "percentage of Ruminococcus flora", "setting": "[5]; [6]", "value": "increased"}, {"measurement": "number of independent OTUs", "setting": "[5]; gut flora, Venn plot", "value": 2051}]}
